Test results reported in patent publication US11851449B2, “Heterocyclic amide compounds having an RORvt inhibitory action” (TAKEDA PHARMACEUTICAL COMPANY LIMITED, priority 2013, dated 2023).

Assays:
[1] = molecular target: T1, RORγt (Homo sapiens, UniProt P51449); assay: RORγt binding test (TR-FRET, fluorescent-labeled cholesterol); settings: read-out: binding inhibitory rate (%) of fluorescent-labeled cholesterol to RORγt at test compound 1 μM
T1 sequence (P51449 1-497 isoform P51449-2): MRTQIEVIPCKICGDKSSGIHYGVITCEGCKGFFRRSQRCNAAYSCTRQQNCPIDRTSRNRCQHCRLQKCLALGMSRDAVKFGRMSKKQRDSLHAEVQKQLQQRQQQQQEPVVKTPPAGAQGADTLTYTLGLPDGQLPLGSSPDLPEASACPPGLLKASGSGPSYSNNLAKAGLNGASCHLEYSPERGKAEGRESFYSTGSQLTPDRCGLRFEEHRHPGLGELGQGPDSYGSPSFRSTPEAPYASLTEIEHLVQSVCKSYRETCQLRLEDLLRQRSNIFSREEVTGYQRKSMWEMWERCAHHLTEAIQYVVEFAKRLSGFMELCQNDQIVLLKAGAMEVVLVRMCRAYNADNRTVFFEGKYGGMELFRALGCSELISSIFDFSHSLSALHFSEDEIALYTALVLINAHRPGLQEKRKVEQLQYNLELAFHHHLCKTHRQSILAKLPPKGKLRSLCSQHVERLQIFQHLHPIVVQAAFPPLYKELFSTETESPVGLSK
Method: The binding activity of the test compound to RORγt was measured by a time resolved fluorescence resonance energy transfer method (TR-FRET) utilizing histidine-tagged RORγt, fluorescent-labeled cholesterol (BODIPY-cholesterol, AVIVA), and terbium-labeled anti-histidine tag antibody (Invitrogen). First, a test compound diluted with an assay buffer (20 mM Tris-HCl (pH 7.5), 100 mM NaCl, 1 mM DTT, 0.1% BSA) was added to a 384 well plate by 3 μL. Then, RORγt diluted with an assay buffer to 240 nM was added by 3 μL, after which fluorescent-labeled cholesterol diluted with the assay buffer to 12 μM was added by 3 μL, and the mixture was stood at room temperature for 20 min. Thereafter, a terbium-labeled anti-histidine tag antibody diluted with the assay buffer to 8 nM was added by 3 μL. The mixture was stood at room temperature for 20 min, and fluorescence intensity (excitation wavelength 320 nm, fluorescence wavelength 520 nm, delay time 100 microseconds) was measured by Envision (PerkinElmer).

[2] = molecular target: T1, RORγt; assay: Cofactor recruitment test (Alpha Screen, biotinylated SRC-1 peptide); assay type: biochemical; settings: read-out: signal value inhibitory rate (%) at test compound 1 μM
Method: Cofactor Recruitment Test
Cofactor recruitment test was performed by Alpha Screen (Histidine Detection Kit, PerkinElmer) method. First, a test compound was diluted with an assay buffer (50 mM Tris-HCl (pH 7.5), 50 mM KCl, 1 mM DTT, 0.1% BSA) and added to a 384 well plate by 5 μL. […] The mixture was stood in a dark place for 1 hr, and the signal value was measured by Envision (PerkinElmer).

[3] = molecular target: T1, RORγt; assay: Jurkat reporter test (human IL-17 ROR response element luciferase reporter); assay type: cell-based; settings: Jurkat, read-out: luminescence level inhibitory rate (%) at test compound 3 μM
Method: The Jurkat cells used for the reporter test were cultured in a culture medium (RPMI (Invitrogen), 10% FCS (AusGeneX), 100 U/mL penicillin, 100 μg/mL streptomycin). On the day of the test, 4×10^7 cells were recovered by a centrifugal operation (1000 rpm, 5 min.) and suspended in PBS (phosphate buffered saline) (Invitrogen). Thereafter, the cells were recovered again by a centrifugal operation, and suspended in 2 mL of R buffer (NEON transfection kit, Invitrogen). […] Gene transfer was performed by Electroporation apparatus (NEON, Invitrogen) under the conditions of pulse voltage 1350 V, interval 10 milliseconds, number of times 3. The cells after gene transfer were suspended in 40 mL of a reaction medium (RPMI, 10% Lipid reduced FCS (HyClone), 10 mM HEPES (pH 7.5), 100 U/mL penicillin, 100 μg/mL streptomycin, 5 μM lovastatin), and plated in a 96 well plate by 90 μL. A test compound diluted with the reaction medium was added by 10 μL, and the cells were cultured overnight in an incubator. Bright-Glo (Promega) was added by 100 μL, and the mixture was stirred at room temperature for 10 min, and the luminescence level was measured by Envision (PerkinElmer).

Structure (SMILES): COc1ccc(C(NC(=O)Cc2cnn(C)c2)C(=O)Nc2ccc([Si](C)(C)C)cc2)cc1 (stereo not drawn) [Example 20, 2-(4-methoxyphenyl)-2-(((1-methyl-1H-pyrazol-4-yl)acetyl)amino)-N-(4-(trimethylsilyl)phenyl)acetamide]
- inhibition at 1 µM [1]: 101%
- inhibition at 1 µM [2]: 73%
- inhibition at 3 µM [3]: 91.8%

Structure (SMILES): COc1ccc(C(C(=O)Nc2cc(F)c([Si](C)(C)C)cc2F)N(C)C(=O)c2cc(O)no2)cc1 (stereo not drawn) [Example 21, N-(2-((2,5-difluoro-4-(trimethylsilyl)phenyl)amino)-1-(4-methoxyphenyl)-2-oxoethyl)-3-hydroxy-N-methyl-1,2-oxazole-5-carboxamide]
- inhibition at 1 µM [1]: 101%
- inhibition at 1 µM [2]: 93.1%
- inhibition at 3 µM [3]: 98.3%

Structure (SMILES): COCc1ccc(C(NC(=O)Cc2cnn(C)c2)C(=O)Nc2ccc([Si](C)(C)C)cc2)cc1 (stereo not drawn) [Example 22, 2-(4-(methoxymethyl)phenyl)-2-(((1-methyl-1H-pyrazol-4-yl)acetyl)amino)-N-(4-(trimethylsilyl)phenyl)acetamide]
- inhibition at 1 µM [1]: 101%
- inhibition at 1 µM [2]: 90.6%
- inhibition at 3 µM [3]: 97.2%

Structure (SMILES): COc1ccc([C@H](C(=O)Nc2cc(F)c([Si](C)(C)C)cc2F)N(C)C(=O)c2cc(O)no2)cc1 [Example 25, N-((1R)-2-((2,5-difluoro-4-(trimethylsilyl)phenyl)amino)-1-(4-methoxyphenyl)-2-oxoethyl)-3-hydroxy-N-methyl-1,2-oxazole-5-carboxamide]
- inhibition at 1 µM [1]: 102%
- inhibition at 1 µM [2]: 95.7%
- inhibition at 3 µM [3]: 100%

Structure (SMILES): COCc1ccc(C(NC(=O)C2CNC(=O)C2)C(=O)Nc2ccc([Si](C)(C)C)c(C#N)c2)cc1 (stereo not drawn) [Example 26, N-(2-((3-cyano-4-(trimethylsilyl)phenyl)amino)-1-(4-(methoxymethyl)phenyl)-2-oxoethyl)-5-oxopyrrolidine-3-carboxamide]
- inhibition at 1 µM [1]: 103%
- inhibition at 1 µM [2]: 99.5%
- inhibition at 3 µM [3]: 97.6%

Structure (SMILES): COc1ccc(C(NC(=O)C2CNC(=O)C2)C(=O)Nc2ccc([Si](C)(C)C)c(C#N)c2)cc1 (stereo not drawn) [Example 27, N-(2-((3-cyano-4-(trimethylsilyl)phenyl)amino)-1-(4-methoxyphenyl)-2-oxoethyl)-5-oxopyrrolidine-3-carboxamide]
- inhibition at 1 µM [1]: 103%
- inhibition at 1 µM [2]: 92.5%
- inhibition at 3 µM [3]: 96%

Structure (SMILES): COc1ccc(C(NC(=O)C2CNC(=O)C2)C(=O)Nc2ccc([Si](C)(C)C)c(F)c2)cc1 (stereo not drawn) [Example 28, N-(2-((3-fluoro-4-(trimethylsilyl)phenyl)amino)-1-(4-methoxyphenyl)-2-oxoethyl)-5-oxopyrrolidine-3-carboxamide]
- inhibition at 1 µM [1]: 100%
- inhibition at 1 µM [2]: 88%
- inhibition at 3 µM [3]: 98%

Structure (SMILES): COc1ccc(C(NC(=O)N2CCC(O)C2)C(=O)Nc2ccc([Si](C)(C)C)c(F)c2)cc1 (stereo not drawn) [Example 29, N-(2-((3-fluoro-4-(trimethylsilyl)phenyl)amino)-1-(4-methoxyphenyl)-2-oxoethyl)-3-hydroxypyrrolidine-1-carboxamide]
- inhibition at 1 µM [1]: 101%
- inhibition at 1 µM [2]: 92.3%
- inhibition at 3 µM [3]: 99.2%

Structure (SMILES): COc1ccc(C(NC(=O)N2CC(O)C2)C(=O)Nc2ccc([Si](C)(C)C)c(F)c2)cc1 (stereo not drawn) [Example 30, N-(2-((3-fluoro-4-(trimethylsilyl)phenyl)amino)-1-(4-methoxyphenyl)-2-oxoethyl)-3-hydroxyazetidine-1-carboxamide]
- inhibition at 1 µM [1]: 98.5%
- inhibition at 1 µM [2]: 95.1%
- inhibition at 3 µM [3]: 99.8%

Structure (SMILES): COCc1ccc(C(C(=O)Nc2ccc([Si](C)(C)C)c(F)c2)N(C)C(=O)c2cc(O)no2)cc1 (stereo not drawn) [Example 31, N-(2-((3-fluoro-4-(trimethylsilyl)phenyl)amino)-1-(4-(methoxymethyl)phenyl)-2-oxoethyl)-3-hydroxy-N-methyl-1,2-oxazole-5-carboxamide]
- inhibition at 1 µM [1]: 99.5%
- inhibition at 1 µM [2]: 98.3%
- inhibition at 3 µM [3]: 99.5%

Structure (SMILES): COCc1ccc(C(NC(=O)C2CNC(=O)C2)C(=O)Nc2ccc([Si](C)(C)C)c(F)c2)cc1 (stereo not drawn) [Example 32, N-(2-((3-fluoro-4-(trimethylsilyl)phenyl)amino)-1-(4-(methoxymethyl)phenyl)-2-oxoethyl)-5-oxopyrrolidine-3-carboxamide]
- inhibition at 1 µM [1]: 95.2%
- inhibition at 1 µM [2]: 95.6%
- inhibition at 3 µM [3]: 99.1%

Structure (SMILES): COCc1ccc(C(NC(=O)N2CCC(O)C2)C(=O)Nc2ccc([Si](C)(C)C)c(F)c2)cc1 (stereo not drawn) [Example 33, N-(2-((3-fluoro-4-(trimethylsilyl)phenyl)amino)-1-(4-(methoxymethyl)phenyl)-2-oxoethyl)-3-hydroxypyrrolidine-1-carboxamide]
- inhibition at 1 µM [1]: 101%
- inhibition at 1 µM [2]: 97.7%
- inhibition at 3 µM [3]: 98.4%

Structure (SMILES): COCc1ccc(C(NC(=O)N2CC(O)C2)C(=O)Nc2ccc([Si](C)(C)C)c(F)c2)cc1 (stereo not drawn) [Example 34, N-(2-((3-fluoro-4-(trimethylsilyl)phenyl)amino)-1-(4-(methoxymethyl)phenyl)-2-oxoethyl)-3-hydroxyazetidine-1-carboxamide]
- inhibition at 1 µM [1]: 101%
- inhibition at 1 µM [2]: 98.9%
- inhibition at 3 µM [3]: 99.2%

Structure (SMILES): COCc1ccc(C(NC(=O)Cc2nnc(C)o2)C(=O)Nc2ccc([Si](C)(C)C)c(F)c2)cc1 (stereo not drawn) [Example 35, N-(3-fluoro-4-(trimethylsilyl)phenyl)-2-(4-(methoxymethyl)phenyl)-2-(((5-methyl-1,3,4-oxadiazol-2-yl)acetyl)amino)acetamide]
- inhibition at 1 µM [1]: 103%
- inhibition at 1 µM [2]: 96.6%
- inhibition at 3 µM [3]: 101%

Structure (SMILES): COCc1ccc(C(NC(=O)Cn2cnccc2=O)C(=O)Nc2ccc([Si](C)(C)C)c(F)c2)cc1 (stereo not drawn) [Example 36, N-(3-fluoro-4-(trimethylsilyl)phenyl)-2-(4-(methoxymethyl)phenyl)-2-(((6-oxopyrimidin-1(6H)-yl)acetyl)amino)acetamide]
- inhibition at 1 µM [1]: 96.2%
- inhibition at 1 µM [2]: 98.2%
- inhibition at 3 µM [3]: 99.8%

Structure (SMILES): COc1ccc(C(NC(=O)C2CNC(=O)C2)C(=O)Nc2cc(F)c([Si](C)(C)C)c(F)c2)cc1 (stereo not drawn) [Example 37, N-(2-((3,5-difluoro-4-(trimethylsilyl)phenyl)amino)-1-(4-methoxyphenyl)-2-oxoethyl)-5-oxopyrrolidine-3-carboxamide]
- inhibition at 1 µM [1]: 101%
- inhibition at 1 µM [2]: 93.6%
- inhibition at 3 µM [3]: 98.5%

Structure (SMILES): COCc1ccc(C(C(=O)Nc2cc(F)c([Si](C)(C)C)c(F)c2)N(C)C(=O)c2cc(O)no2)cc1 (stereo not drawn) [Example 38, N-(2-((3,5-difluoro-4-(trimethylsilyl)phenyl)amino)-1-(4-(methoxymethyl)phenyl)-2-oxoethyl)-3-hydroxy-N-methyl-1,2-oxazole-5-carboxamide]
- inhibition at 1 µM [1]: 102%
- inhibition at 1 µM [2]: 99.7%
- inhibition at 3 µM [3]: 100%

Structure (SMILES): COCc1ccc(C(NC(=O)Cc2cc(O)no2)C(=O)Nc2cc(F)c([Si](C)(C)C)c(F)c2)cc1 (stereo not drawn) [Example 39, N-(3,5-difluoro-4-(trimethylsilyl)phenyl)-2-(((3-hydroxy-1,2-oxazol-5-yl)acetyl)amino)-2-(4-(methoxymethyl)phenyl)acetamide]
- inhibition at 1 µM [1]: 103%
- inhibition at 1 µM [2]: 99.6%
- inhibition at 3 µM [3]: 100%

Structure (SMILES): COCc1ccc(C(NC(=O)Cn2cnccc2=O)C(=O)Nc2cc(F)c([Si](C)(C)C)c(F)c2)cc1 (stereo not drawn) [Example 40, N-(3,5-difluoro-4-(trimethylsilyl)phenyl)-2-(4-(methoxymethyl)phenyl)-2-(((6-oxopyrimidin-1(6H)-yl)acetyl)amino)acetamide]
- inhibition at 1 µM [1]: 101%
- inhibition at 1 µM [2]: 98.7%
- inhibition at 3 µM [3]: 100%
